Measurements: PMC10320002, “In vitro antiproliferative, anti-inflammatory effects and molecular docking studies of natural compounds isolated from Sarcocephalus pobeguinii (Hua ex Pobég)” (Frontiers in Pharmacology, 2023)
Several values for one entry are separate records, joined by “and”; a condition that tells them apart may be missing. Identical values can stand only once.

Columns and labels:
[1] = system: caspase-3/-7 activity in MCF-7 cells; test: Caspase-3/-7 luminescence assay (Caspase-Glo 3/7) in MCF-7 cells; assay type: cell-based, human; settings: 2×IC50, 18 h, vs cells treated with DMSO 0.5%
Experimental: The effect of the most bioactive compounds (2), (6) and (9) were used for the analysis of caspase-3 and caspase-7 activities on MCF-7 cells by using the Caspase-Glo® 3/7 kit (Promega, Germany). In fact, MCF-7 cells were seeded at a density of 10^4 cells per well on 96-well microtiter plates, and the plates were incubated overnight at 37 °C in a 5% CO2 humidified environment. […] Thereafter, 100 µL of Caspase-Glo® 3/7 reagent was added to each well, mixed and incubated in the dark for 1 h at room temperature. The luminescence was then measured on a microplate reader (Synergy Multi-Mode Reader, BioTek, Winooski, United States of America). The caspase-3/-7 activity was expressed as fold change of cells treated with 0.5% DMSO (control).

[2] = system: human lung cancer cells A549; set-up: method as in Gauthier et al., 2009; Gao et al., 2016; settings: ref Gauthier et al., 2009; Gao et al., 2016; cited from earlier work
[3] = system: human normal skin fibroblasts (WS1) cell lines; set-up: method as in Gauthier et al., 2009; settings: ref Gauthier et al., 2009; cited from earlier work
[4] = system: cancer cells (MCF-7, HepG2, Caco-2 and A549) and non-cancerous Vero cells; test: Time-dependent cytotoxic effect on cell growth (MTT); assay type: cell-based; settings: 10 μg/mL; 12, 24 and 48 h
Experimental: The cancerous and non-cancerous cells were seeded at a density of 10^4 cells per well in 96-well microtiter plates, and they were incubated overnight at 37°C with 5% CO2 in a 5% CO2 humidified environment in order to allow the attachment of cells at the bottom of the plates. Then, the cells were exposed to increasing concentrations of compounds (100, 50, 25, 10 and 5 μg/mL) dissolved in dimethyl sulfoxide (DMSO) and further diluted in fresh culture medium. In this assay, the final concentration of DMSO in the culture medium was 0.5% used as negative control while doxorubicin hydrochloride (Pfizer, United States of America) was used as a positive control. […] After 4 h of incubation, the medium was gently removed, and the formazan crystals were solubilized in 50 µL of DMSO. The absorbance was measured at 570 nm after shaking for 1 min on a microplate reader (Synergy Multi-Mode Reader, BioTek, Winooski, United States of America).

| SMILES | fold change in the activation of caspase-3/-7 activity [1] | IC50 [2] | IC50 [3] | time-dependent cytotoxic effect on cell growth [4] |
| --- | --- | --- | --- | --- |
| CC1(C)CC[C@]2(C(=O)O)CC[C@]3(C)C(=CC[C@@H]4[C@@]5(C)CC[C@H](O)[C@@](C)(CO)[C@@H]5CC[C@]43C)[C@@H]2C1 [Compound 2, hederagenin] | up to 2 fold | 26.3 µM and 39 µM | 77 µM | time-dependent manner |
| C[C@@H]1CC[C@]2(C(=O)O)CC[C@]3(C(=O)O)C(=CCC4[C@@]5(C)CC[C@H](O[C@H]6O[C@H](C)[C@@H](O)[C@H](O)[C@H]6O)C(C)(C)C5CC[C@]43C)C2[C@H]1C (stereo partly drawn) [Compound 6, quinovic acid 3-O-[α-D-quinovopyranoside]] | up to 2 fold |  |  |  |
